The experiment deals with T1, Human DGAT1 (Homo sapiens, UniProt O75907).
T1 construct: made in house; host or cells: Sf9 insect cells (baculovirus), microsomes
T1 sequence (O75907 1-488): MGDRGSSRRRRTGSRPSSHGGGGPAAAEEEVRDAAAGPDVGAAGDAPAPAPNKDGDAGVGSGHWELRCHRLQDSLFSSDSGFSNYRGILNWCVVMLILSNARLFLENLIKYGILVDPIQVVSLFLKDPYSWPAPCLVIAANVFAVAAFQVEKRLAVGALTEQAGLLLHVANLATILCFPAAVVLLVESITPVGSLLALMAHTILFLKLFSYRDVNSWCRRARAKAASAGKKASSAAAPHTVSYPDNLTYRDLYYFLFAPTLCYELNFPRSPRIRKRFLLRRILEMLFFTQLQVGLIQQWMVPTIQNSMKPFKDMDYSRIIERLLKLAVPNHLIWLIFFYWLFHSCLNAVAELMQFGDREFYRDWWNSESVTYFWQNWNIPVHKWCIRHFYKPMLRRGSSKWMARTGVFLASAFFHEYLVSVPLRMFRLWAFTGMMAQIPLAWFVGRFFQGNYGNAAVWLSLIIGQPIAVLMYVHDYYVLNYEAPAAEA
Nature of the experiment: human DGAT1 fluorescence (CPM) assay, inhibition of CoA product formation. The class given is biochemical. Particulars: human DGAT1 fluorescene (CPM) assay; microsomes from Sf9 insect cells; read-out: hDGAT IC50. Here is the method:
Human DGAT1 was expressed in Sf9 insect cells using a baculovirus expression system. Microsomes were prepared and used as enzyme for in vitro inhibition testing in either of two formats measuring production of coenzyme A or tridecanoylglycerol product, respectively. All steps were performed at 21-23° C. All data for DGAT1 inhibition by test compounds were collected under conditions where product formation was linear with reaction time.
An equal volume (10 uL) of 3× enzyme in buffer was added and the components incubated for 30 minutes pre-reaction incubation to allow enzyme and test compounds to attain binding equilibrium. […] Some assays were performed with inclusion of didecanoylglycerol in the pre-reaction incubation of test compound and enzyme. DGAT reactions (30 uL) were initiated upon addition of 10 uL of 3× substrate solution. Final reaction conditions consisted of 20 mM HEPES pH 7.5, 2 mM MgCl2, 1 mM CHAPS, 50 uM didecanoylglycerol, 3 uM decanoyl-CoA, 1 ug/mL microsomal protein, and 1% DMSO. Following a 60 minute reaction incubation, reactions were stopped and CoA product derivatized with 30 uL of buffer containing 10 uM {4-[4-(4-amino-7,7-dimethyl-7H-pyrimido[4,5-b][1,4]oxazin-6-yl)phenyl]cyclohexyl}acetic acid and 50 uM 7-diethylamino-3-(4′-maleimidylphenyl)-4-methylcoumarin (CPM). […] IC50s were fitted using GraphPad Prism to a sigmoidal dose response.
For `CCc1ccc(NC(=O)Nc2cnc(-c3ccc4c(c3)CCC(CC(=O)O)(CC(F)(F)F)C4=O)cn2)cc1` (stereo not shown) [Example 220], the IC50 came to 0.3 nM. Consider `CCC1(CC(=O)O)CCc2cc(-c3ccc(NC(=O)Nc4ccccc4)c(F)c3)ccc2C1=O` (stereo not shown) [Example 141], for which the IC50 turned out to be 9.4 nM. For `CC(C)(C(=O)O)C1CCc2cc(-c3ccc(NC(=O)Nc4cccc(C(F)(F)F)c4)cc3)ccc2C1=O` (stereo not shown) [Example 76, 2-methyl-2-{1-oxo-6-[4-({[3-(trifluoromethyl)phenyl]carbamoyl}amino)phenyl]-1,2,3,4-tetrahydronaphthalen-2-yl}propanoic acid] the value was 112 nM; for `O=C(O)CC1(CC(F)(F)F)CCc2cc(-c3ccc(NC(=O)Nc4cccc(Cl)c4)cc3)ccc2C1=O` (single isomer, unassigned) [Example 214, 2-(6-(4-(3-(3-Chlorophenyl)ureido)phenyl)-1-oxo-2-(2,2,2-trifluoroethyl)-1,2,3,4-tetrahydronaphthalen-2-yl)acetic acid], 0.6 nM.

For the origin of these results see patent publication US9242929B2, “Compounds as diacylglycerol acyltransferase inhibitors” (GlaxoSmithKline Intellectual Property (No.2) Limited, priority 2011, dated 2016).
